This is an account of results in patent publication US20130095151A1, “BROAD SPECTRUM SUNSCREEN COMPOSITION COMPRISING 2 HYDROXY SULFOBETAINE OF CINNAMIDOALKYL AMINE” (GALAXY SURFACTANTS LTD., priority 2010, published 2013).

Data set [1] can be described thus: photostability: remaining content of AVB after exposing the formulas to sunlight, UV spectrophotometer vs unexposed control. Particulars: in sunscreen creams with AVB/OCN. In kind it is physicochemical. The protocol: Furthermore, the formulas I to 4 above where tested for photostability by exposing the formulas to sunlight for three hours (10 am to 1 pm, 2 Jun. 2011, Navi Mumbai, INDIA). The remaining content of AVB was measured using UV Spectrophotometer and compared to unexposed control.

For data set [2] the following is noted: free acid, not neutralised; cited from earlier work.

As for `COc1ccc(/C=C/C(=O)NCCC[N+](C)(C)CC(O)CS(=O)(=O)[O-])cc1` (centres unmarked) [SunBeat, 3-(N-p-Methoxycinnamidopropyl, N,N-Dimethyl Ammonium)-2-Hydroxypropane-1-Sulphonate], the “photostability compared to PBSA and OMC” value in data set [1] was “enhanced photostability”.

As to `O=S(=O)(O)c1ccc2[nH]c(-c3ccccc3)nc2c1` [Phenylbenzimidazole Sulfonic Acid], the solubility in water in data set [2] is on record as 0.25 % w/w.
